Reference: ChEMBL document CHEMBL1201862, “PubChem BioAssay data set” (2004)
The source made the active and inactive calls. Rule as the data show it, for most assays here: actives have a measured EC50 and inactives only a lower limit.

Experiments:
H4 = assay: Luminescence Cell-Based Dose Response HTS to Identify Activators of 5'UTR Stem-Loop Driven Prion Protein mRNA Translation in H4 Neuroglioblastoma Cells. [Related pubchem assays: 1829 (Project Summary), 1814 (Primary HTS)]; assay type: functional; details: Homo sapiens
[1] = Luminescence Cell-Based Dose Response HTS to Identify Activators of Luciferase Translation or Activity in H4 […] Cells. [Related pubchem assays: 1829 (Project Summary), 1814 (Primary HTS)]; assay type: functional
[2] = Luminescence Cell-Based Dose Confirmation HTS to Identify Activators of 5'UTR Stem-Loop Driven Alpha-Synuclein mRNA Translation in H4 Neuroglioblastoma Cells. [Related pubchem assays: 1829 (Project Summary), 1814 (Primary HTS)]; assay type: functional
[3] = molecular target: T1, Ubiquitin-conjugating enzyme E2 N (Homo sapiens, UniProt P61088); assay type: functional;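 also: Dose-response confirmation in a TR-FRET assay detecting UBC13-driven polyubiquitin chain formation, inhibition measured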
T1 sequence (P61088 whole entry): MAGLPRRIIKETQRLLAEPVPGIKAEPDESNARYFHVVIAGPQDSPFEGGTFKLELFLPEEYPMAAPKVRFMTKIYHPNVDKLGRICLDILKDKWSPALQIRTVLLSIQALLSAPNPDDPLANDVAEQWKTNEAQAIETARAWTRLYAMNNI

[4] = molecular target: T2, Corticotropin-releasing factor receptor 2/Corticotropin-releasing factor-binding protein (Homo sapiens, UniProt P24387+Q13324); assay: Dose Response confirmation of uHTS hits for small molecule antagonists of the CRF-binding protein and CRF-R2 receptor complex.; assay type: functional; details: read-out: IC50_Mean
T2 sequence (Q13324 whole entry): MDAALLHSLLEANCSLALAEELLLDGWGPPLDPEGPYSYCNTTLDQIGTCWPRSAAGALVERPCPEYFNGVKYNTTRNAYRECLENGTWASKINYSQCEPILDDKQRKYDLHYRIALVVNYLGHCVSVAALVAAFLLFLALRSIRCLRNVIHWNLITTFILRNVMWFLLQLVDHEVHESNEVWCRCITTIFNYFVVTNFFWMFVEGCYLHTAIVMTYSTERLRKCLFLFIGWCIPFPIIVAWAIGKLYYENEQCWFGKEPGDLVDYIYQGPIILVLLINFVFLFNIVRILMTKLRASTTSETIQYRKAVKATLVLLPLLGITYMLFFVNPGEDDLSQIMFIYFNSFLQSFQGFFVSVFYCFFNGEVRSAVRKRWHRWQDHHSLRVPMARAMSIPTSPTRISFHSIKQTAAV
T2 sequence (P24387 whole entry): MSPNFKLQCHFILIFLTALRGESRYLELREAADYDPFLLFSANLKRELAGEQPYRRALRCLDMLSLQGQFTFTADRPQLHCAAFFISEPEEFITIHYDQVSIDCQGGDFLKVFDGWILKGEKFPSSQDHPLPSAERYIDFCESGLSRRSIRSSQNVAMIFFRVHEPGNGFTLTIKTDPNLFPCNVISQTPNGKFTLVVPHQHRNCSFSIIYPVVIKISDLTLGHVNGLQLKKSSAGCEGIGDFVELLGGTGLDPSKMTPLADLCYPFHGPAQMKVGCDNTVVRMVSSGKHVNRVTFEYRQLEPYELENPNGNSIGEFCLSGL

[5] = molecular target: T2, Corticotropin-releasing factor receptor 2/Corticotropin-releasing factor-binding protein; assay: activators of CRF receptor 2 with binding protein – uHTS hits, confirmation (AID 602473); assay type: functional; details: read-out: EC50_Mean
[6] = molecular target: T3, Heat shock factor protein 1 (Mus musculus, UniProt P38532); assay: decrease of HSF1-responsive luciferase luminescence – cell-based, NIH3T3, dose retest, confirmation (AID 2382); assay type: functional;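 also: NIH3T3 fibroblasts with HSF1-driven luciferase reporter stressed by proteasome inhibitor MG132; luminescence from HSF1-driven luciferase expression after 8 hours of MG132 stress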
T3 sequence (P38532 whole entry): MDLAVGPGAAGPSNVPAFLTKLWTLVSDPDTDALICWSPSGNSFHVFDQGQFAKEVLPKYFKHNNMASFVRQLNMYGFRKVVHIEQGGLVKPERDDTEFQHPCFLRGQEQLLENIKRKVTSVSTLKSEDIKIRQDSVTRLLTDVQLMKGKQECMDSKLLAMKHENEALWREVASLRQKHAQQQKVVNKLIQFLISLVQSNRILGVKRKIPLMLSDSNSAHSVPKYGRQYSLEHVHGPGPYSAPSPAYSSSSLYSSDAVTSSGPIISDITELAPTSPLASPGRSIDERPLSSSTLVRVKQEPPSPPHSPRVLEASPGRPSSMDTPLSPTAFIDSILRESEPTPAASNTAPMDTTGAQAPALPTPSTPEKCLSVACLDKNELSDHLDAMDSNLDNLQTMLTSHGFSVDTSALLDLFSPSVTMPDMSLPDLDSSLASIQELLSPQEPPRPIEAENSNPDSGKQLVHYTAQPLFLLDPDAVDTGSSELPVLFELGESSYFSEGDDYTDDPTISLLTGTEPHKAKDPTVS

INS1 = assay: INS-1E survival protection against cytokine death – cell-based, luminescence, retest, dose response (AID 449756); assay type: functional; details: Rattus norvegicus;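 also: cell death triggered by IL-1 beta plus TNF-alpha plus IFN-gamma mixture; protective hits raise ATP signal compared with cytokine alone wells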
[7] = viability of uninfected HEp-2 cells – cell-based, HTS, cytotoxicity control for RSV inhibitor project, dose response (AID 2410); assay type: functional; details: human respiratory syncytial virus
[8] = NIH3T3 cell viability loss – ATP luminescence, mouse fibroblasts, counter-screen, dose response (AID 2010); assay type: functional, cell-based;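 also: cells exposed to compound for about 90 hours before reading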
[9] = Trypanosoma cruzi growth suppression in host cells – NIH3T3 host cells, beta-gal luminescence, confirmation (AID 2044); assay type: functional, cell-based;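 also: intracellular parasites grown in NIH/3T3 mouse fibroblasts as host cells; luminescent beta-galactosidase reporter signal from transgenic T. cruzi replicating inside host cells; inhibitors lower the luminescence signal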
Streptococcus = assay: GAS UMAA2166 growth inhibition – luminescence, BacTiterGlo, counter-screen for streptokinase expression inhibitor project, dose response (AID 1915); assay type: functional, organism-based;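 also: potency for reduction of bacterial viability or growth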
Streptokinase A = molecular target: T4, Streptokinase A (Streptococcus pyogenes serotype M1, UniProt P10520); assay: viability-normalized secreted streptokinase activity reduction – plasminogen activation absorbance, OD405, dose response (AID 1914); assay type: functional, Streptococcus pyogenes M1 GAS;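 also: secreted streptokinase activity via plasminogen activation per viability signal from cell pellet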
T4 sequence (P10520 whole entry): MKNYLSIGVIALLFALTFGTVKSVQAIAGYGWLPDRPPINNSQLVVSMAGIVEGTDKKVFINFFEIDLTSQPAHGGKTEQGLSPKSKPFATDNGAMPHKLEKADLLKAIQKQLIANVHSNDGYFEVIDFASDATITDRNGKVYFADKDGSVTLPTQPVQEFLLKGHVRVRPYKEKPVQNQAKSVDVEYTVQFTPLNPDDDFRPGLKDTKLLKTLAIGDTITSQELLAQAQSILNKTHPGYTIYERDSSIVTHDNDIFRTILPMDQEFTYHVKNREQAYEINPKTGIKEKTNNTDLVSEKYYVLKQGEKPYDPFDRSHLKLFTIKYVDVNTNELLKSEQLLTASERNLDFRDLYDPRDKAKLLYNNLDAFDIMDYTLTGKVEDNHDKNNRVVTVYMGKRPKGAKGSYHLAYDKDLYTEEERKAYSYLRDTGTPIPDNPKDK

[10] = system: Streptococcus sp. 'group A'; assay: Streptococcus pyogenes SK(-)GAS viability under kanamycin – luminescence, BacTiterGlo, confirmation, counter-screen for streptokinase expression inhibitor project, dose response (AID 1900); assay type: functional, organism-based
Paired box protein Pax-8 = Paired box protein Pax-8 (Homo sapiens, UniProt Q06710); assay: PAX8 transcriptional activity inhibition in RMG-I – RMG-I cells, luciferase, cherry-pick, dose response (AID 687027); assay type: functional, cell-based;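 also: luciferase reporter driven by Pax8 target thyroperoxidase promoter measured by SteadyGlo luminescence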
Sequence of Paired box protein Pax-8 (Q06710 whole entry): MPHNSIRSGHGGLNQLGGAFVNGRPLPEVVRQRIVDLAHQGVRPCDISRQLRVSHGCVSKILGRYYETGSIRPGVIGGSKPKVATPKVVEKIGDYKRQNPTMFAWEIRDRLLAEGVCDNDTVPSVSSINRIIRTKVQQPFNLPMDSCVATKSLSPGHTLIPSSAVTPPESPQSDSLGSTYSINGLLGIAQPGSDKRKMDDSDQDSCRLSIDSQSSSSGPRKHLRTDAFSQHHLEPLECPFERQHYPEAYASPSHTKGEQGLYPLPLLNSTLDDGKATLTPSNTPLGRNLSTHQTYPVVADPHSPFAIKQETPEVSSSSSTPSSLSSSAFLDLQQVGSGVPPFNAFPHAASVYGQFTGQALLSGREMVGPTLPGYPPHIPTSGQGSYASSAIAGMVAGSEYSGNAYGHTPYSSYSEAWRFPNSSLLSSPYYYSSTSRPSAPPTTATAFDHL

[11] = NIH-3T3 fibroblast cytotoxicity, dose response, cytotoxicity control, cell-based, fluorescence, Alamar Blue, secondary assay (AID 2327); assay type: functional;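 also: NIH-3T3 mouse fibroblasts cultured with fluconazole at 8 µg/mL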
[12] = fluconazole-exposed Candida albicans growth modulators – fluorescence, retest, confirmation (AID 2467); assay type: functional, cell-based
Cytochrome P450 2C9 = Cytochrome P450 2C9 (Homo sapiens, UniProt P11712)
Sequence of Cytochrome P450 2C9 (P11712 whole entry): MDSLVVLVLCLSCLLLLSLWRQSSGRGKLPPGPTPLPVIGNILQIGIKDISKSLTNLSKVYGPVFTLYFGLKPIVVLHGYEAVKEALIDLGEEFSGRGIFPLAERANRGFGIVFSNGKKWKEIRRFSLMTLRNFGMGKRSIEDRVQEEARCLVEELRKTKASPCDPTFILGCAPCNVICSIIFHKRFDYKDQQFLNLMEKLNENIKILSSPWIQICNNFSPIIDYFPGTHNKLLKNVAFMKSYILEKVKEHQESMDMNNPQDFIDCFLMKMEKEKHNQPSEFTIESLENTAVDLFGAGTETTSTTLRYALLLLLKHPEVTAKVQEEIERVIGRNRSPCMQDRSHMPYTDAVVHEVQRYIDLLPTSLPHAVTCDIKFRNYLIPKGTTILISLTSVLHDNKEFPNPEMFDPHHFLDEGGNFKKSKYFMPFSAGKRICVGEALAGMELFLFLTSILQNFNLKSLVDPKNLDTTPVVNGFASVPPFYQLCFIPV

CCc1nnc(NC(=O)c2ccc(-c3ccccc3Cl)o2)s1
EC50 (H4): 18.9 µM (active) | EC50 [1]: 6.73 µM (active) | EC50 [2]: > 120 µM (not active)

COc1ccc(C(CCN2CCCC(C)C2)c2c(OC)cc(OC)c3c(-c4ccccc4)cc(=O)oc23)cc1 (stereo unspecified)
IC50 [3]: > 20 µM (inactive)

CCCCON1C(=O)c2cccc3cccc(c23)C1=O
IC50 [4]: > 47.1 µM (inactive) | EC50 [5]: > 53 µM (inactive)

COCCNC(=O)CSC1=N/C(=C/c2ccc(Cl)c(Cl)c2)C(=O)N1c1ccccc1F
EC50 [6]: 20 µM (active) | AC50 (INS1): 8.64 µM (active) | CC50 [7]: 47.8 µM (active)

COc1ccc(-[n+]2c(-c3ccc(Br)cc3)cn3c2CCCCC3)cc1
EC50 [8]: > 60 µM (not active) | EC50 [9]: 0.552 µM (active) | AC50 (INS1): 1.15 µM (active)

Cc1nc2cc(NC(=O)c3ccc(S(=O)(=O)N(C)c4ccccc4)cc3)ccc2o1
EC50 (H4): 15.1 µM (active) | EC50 [1]: 23.9 µM (active) | EC50 [2]: 26 µM (active)

c1ccc2oc(C3=NN=C(NC4CC4)SC3)cc2c1
EC50 (H4): > 120 µM (not active) | EC50 [1]: > 120 µM (not active) | EC50 [2]: > 120 µM (not active)

Cc1cc(S(=O)(=O)Nc2ccc(C(=O)NCC(C)(C)N3CCOCC3)cc2)ccc1F
EC50 [6]: > 195 µM (not active) | IC50 [4]: > 47.1 µM (inactive) | EC50 [5]: > 53 µM (inactive)

Cc1ccc(S(=O)(=O)N(CC(=O)N=Nc2c(O)[nH]c3ccccc23)c2ccc(C)c(C)c2)cc1
IC50 [4]: 3.25 µM (active) | EC50 [5]: > 53 µM (inactive)

COc1ccc(CN2CC(=O)N(c3cccc(Cl)c3)C2=S)cc1OC
IC50 [4]: > 47.1 µM (inactive) | EC50 [5]: > 53 µM (inactive)

Cc1ccc(C)c(N2CCN(C(=O)CCCOc3cc(=O)n(C)c4ccccc34)CC2)c1
AC50 (INS1): 2.78 µM (active)

CCCC12C(=O)C(C)(C(c3ccccc3)=C1c1ccccc1)C1C(=O)N(c3ccc(C)cc3)C(=O)C12 (stereo unspecified)
AC50 (INS1): 4.16 µM (active)

Cc1nc(SCC(=O)c2cccs2)c2oc3ccccc3c2n1
EC50 (Streptococcus): 20.1 µM (active) | EC50 (H4): 68 µM (active) | EC50 (Streptokinase A): > 150 µM (not active) | EC50 [1]: 16 µM (active) | EC50 [2]: 21.5 µM (active) | EC50 [10]: 21.2 µM (active)

Nc1c(C(=O)N2CCOCC2)sc2nc3c(cc12)CCC3
IC50 [4]: > 47.1 µM (inactive) | EC50 [5]: > 53 µM (inactive)

COc1ccc(-c2nnc3c4ccccc4c(C)nn23)cc1
EC50 (H4): > 120 µM (not active) | EC50 [1]: 18.6 µM (active) | EC50 [2]: 13.3 µM (active)

CC(C)N1CCc2c(sc(NC(=O)c3ccc(S(=O)(=O)N4CCc5ccccc54)cc3)c2C(N)=O)C1
IC50 [3]: > 20 µM (inactive)

OC1(C(F)(F)F)CC(O)(C(F)(F)F)n2nc(-c3ccccc3)cc2N1 (stereo unspecified)
EC50 (H4): 11 µM (active) | EC50 [1]: > 120 µM (not active) | EC50 [2]: > 120 µM (not active)

CNCC(O)c1cc(F)c(OCc2ccccc2)c(OCc2ccccc2)c1F (stereo unspecified)
IC50 [3]: > 20 µM (inactive)

CSC1=NCCN1C(=O)Cc1ccc(Cl)cc1
IC50 [4]: > 47.1 µM (inactive) | EC50 [5]: > 53 µM (inactive)

O=C1N=C(N/N=C/c2ccc(F)cc2)SC1c1ccccc1 (stereo unspecified)
IC50 [4]: > 47.1 µM (inactive) | EC50 [5]: > 53 µM (inactive)

Cc1nn2c3ccccc3nc2n(C)c1=O
IC50 [4]: > 47.1 µM (inactive) | EC50 [5]: > 53 µM (inactive)

C[C@@H]1CCCCO[C@@H](CN(C)Cc2ccc(C(F)(F)F)cc2)[C@H](C)CN([C@@H](C)CO)C(=O)c2cc(NS(=O)(=O)c3ccccc3)ccc2O1
AC50 (Paired box protein Pax-8): 4.66 µM (active)

COc1ccc(/N=C/C=C2\C=C(c3ccccc3)OC(C)(C)O2)cc1
EC50 (H4): > 120 µM (not active) | EC50 [1]: 10.2 µM (active) | EC50 [2]: > 120 µM (not active)

CCCCC/N=C(/C)c1c(O)oc2ccccc2c1=O
EC50 (H4): 9.36 µM (active) | EC50 [1]: 61.4 µM (active) | EC50 [2]: > 120 µM (not active)

CC(C)=CCc1cc2c(=O)c3c(O)c4c(cc3oc2c(O)c1O)OC(C)C4(C)C (stereo unspecified) [GERONTOXANTHONE G]
EC50 [8]: 6.31 µM (active) | EC50 [9]: 2.64 µM (active) | EC50 [11]: > 160 µM (inactive) | EC50 [12]: > 38 µM (not active) | AC50 (INS1): 5.18 µM (active)

O=C(NC1CCCCC1)NS(=O)(=O)c1ccc2c(c1)CCC2 [GLYHEXAMIDE]
IC50 [4]: > 47.1 µM (inactive) | EC50 [5]: > 53 µM (inactive)

CC(=O)/N=c1/sc(S(N)(=O)=O)nn1C [METHAZOLAMIDE]
IC50 [4]: > 47.1 µM (inactive) | AC50 (Cytochrome P450 2C9): 12.6 µM (inconclusive) | EC50 [5]: > 53 µM (inactive)
